Reference: paper PMC5371851 (Toxins, 2017)

Assays:
[1] = test system: human gastric epithelial (GES-1) cells
porcine IPEC-1 = settings: pig intestine cell (IPEC-1); cited from earlier work

CC1=C[C@H]2O[C@@H]3[C@H](O)C[C@](C)([C@@]2(CO)[C@H](O)C1=O)[C@]31CO1 [DON, deoxynivalenol]
Dm (median-effect dose, IC50 value) [1]: 2.99 ppm | EC30 (effective concentration of 30% inhibiting cell viability rate) [1]: 0.75 | EC70 (effective concentration of 70% inhibiting cell viability rate) [1]: 11.99 | m (slope of median-effect curves) [1]: 0.61

CC(=O)O[C@@H]1C[C@]2(C)[C@@]3(CO)[C@H](O)C(=O)C(C)=C[C@H]3O[C@H]1[C@@]21CO1 [3-ADON, 3-acetyldeoxynivalenol]
toxicity relative to DON (porcine IPEC-1): less toxicity than DON | relative potency in reducing cell viability (fold less) [1]: ten-fold | effect on cell viability ([1]; human): neither D3G nor 3-ADON decreased any cell viability

CC(=O)OC[C@]12[C@H](O)C(=O)C(C)=C[C@H]1O[C@@H]1[C@H](O)C[C@@]2(C)[C@]12CO2 [15-ADON, 15-acetyldeoxynivalenol]
Dm (median-effect dose, IC50 value) [1]: 4.77 ppm | EC30 (effective concentration of 30% inhibiting cell viability rate) [1]: 1.13 | EC70 (effective concentration of 70% inhibiting cell viability rate) [1]: 20.05 | m (slope of median-effect curves) [1]: 0.59

CC1=C[C@H]2O[C@@H]3[C@H](O)[C@@H](O)[C@](C)([C@@]2(CO)[C@H](O)C1=O)[C@]31CO1 [NIV, Nivalenol]
Dm (median-effect dose, IC50 value) [1]: 0.58 ppm | EC30 (effective concentration of 30% inhibiting cell viability rate) [1]: 0.08 | EC70 (effective concentration of 70% inhibiting cell viability rate) [1]: 4.36 | m (slope of median-effect curves) [1]: 0.42

CC1=C[C@H]2O[C@@H]3[C@H](O[C@@H]4O[C@H](CO)[C@@H](O)[C@H](O)[C@H]4O)C[C@](C)([C@@]2(CO)[C@H](O)C1=O)[C@]31CO1 [D3G, deoxynivalenol-3-glucoside]
toxicity to GES-1 cells [1]: no toxicity

CC(=O)O[C@@H]1[C@@H](O)[C@H]2O[C@@H]3C=C(C)C(=O)[C@@H](O)[C@]3(CO)[C@]1(C)[C@]21CO1 [FX, Fusarenon-X]
Dm (median-effect dose, IC50 value) [1]: 0.85 ppm | EC30 (effective concentration of 30% inhibiting cell viability rate) [1]: 0.15 | EC70 (effective concentration of 70% inhibiting cell viability rate) [1]: 4.97 | m (slope of median-effect curves) [1]: 0.48
